# Measurements published in patent US20240165196A1, “Beta-Lactamase Inhibitors” (VIB VZW, priority 2021, published 2024).
# Peptide text beside a SMILES is read from it.
# What was measured:
# Type in all cases: cell-based
# E. coli TEM-206 = test: antimicrobial susceptibility testing, VITEK 2 AST Cards; on Interpretation: key: S, susceptible; I, intermediate; R, resistant
# Method: (§1) Beta-lactamase clinical samples were collected from University Hospitals Leuven and tested for ESBL production using the disk diffusion method^61. The beta-lactamase reference isolates were purchased from IHMA International Health management associates. Bacterial strains were cultivated in Mueller Hinton Broth (MHB, Difco) at 37° C. Whenever required growth media were supplemented with appropriate antibiotic to the medium or plates (kanamycin 30 μg/mL, L-arabinose 0.5 mg/mL, and IPTG 1 mM/mL). Escherichia coli BL21 (Thermo Fisher Scientific, Belgium) was used for cloning and plasmid amplification. For selection of antibiotic resistance colonies, E. coli carrying plasmids was grown in LB agar plates supplemented with the relevant antibiotic. Bacterial CFU counting was done on blood agar plates (BD Biosciences, Belgium) or MHA agar plates. Species identification and antibiograms for all clinical isolates were performed using MALDI-Tof and VITEK® 2 automated system (BioMérieux, France).
# E. coli NDM ? a = test: as above
# Method: as §1
# E. coli SH ? (APHA) = test: as above
# Method: as §1
# E. coli NDM ? b = test: as above
# Method: as §1
# E. coli TEM-30 = test system: E. coli TEM-30; on Interpretation: key: S, susceptible; I, intermediate; R, resistant
# Method: as §1
# E. coli TEM-1 ? = test system: E. coli TEM-1 ?
# Method: as §1
# E. coli TEM-148 = test system: E. coli TEM-148; on Interpretation: key: S, susceptible; I, intermediate; R, resistant
# Method: as §1
# E. coli TEM-104 = test system: E. coli TEM-104; on Interpretation: key: S, susceptible; I, intermediate; R, resistant
# Method: as §1
# E. coli strain UZ_TEM104 [1] = conditions: peptide alone
# Excerpt: In order to generate a synthetic amyloid peptide capable of inactivating the TEM-1 beta-lactamase enzyme by capitalizing on its aggregation propensity, we applied a previously developed design pattern for synthetic aggregating sequences. This involves a tandem repeat of the APR, each instance flanked by charged amino acids for solubility and separated by a short peptide linker^19,20,23 (FIG. 2G). Previous work has shown that good bacterial uptake can be achieved using one positively charged arginine residue on the N-terminal side of each APR in the tandem and two arginine residues on the C-terminal side. This has the additional benefit of reducing the self-aggregation of the peptides and increasing their solubility prior to target engagement. As before, we employed a single Pro residue as a linker between the APRs and focused on an APR length of seven, extending shorter APRs to this length by incorporating flanking amino acids unless they were obvious aggregation breakers (Arg, Lys, Asp, Glu or Pro, see Table 1). We obtained these peptides from solid phase synthesis, followed by HPLC purification to a purity judged by reverse phase chromatography of at least 90% (Genscript).
# Determination of MIC values using the broth microdilution in the 96-well plate (BD Biosciences, Belgium) according to the EUCAST guideline, which was performed in 96-well polystyrene flat bottom microtiter plates (BD Biosciences). Briefly, a single colony was inoculated into 5 mL Difco™ Mueller Hinton Broth (BD Biosciences Ref 275730) and grown to the end-exponential growth phase in a shaking incubator at 37° C. Cultures were subsequently diluted to an MacFarland (0.5 optical density) then the culture was diluted to reach 10^6 CFU/mL in fresh MHB medium. 50 μl of different concentration of peptides ranging from 128 to 2 μg/mL were serially diluted to the sterile 96-well plate in MHB. 50 μL of the diluted bacteria in MHB were pipetted into 96-well plates to reach the final volume of 100 μL. The bacteria grown with the maximum concentration of carrier and medium were considered as positive and negative controls, respectively. The plates were statically incubated overnight at 37° C. to allow bacterial growth. OD was measured at 590 nm a multipurpose ultraviolet-visible plate reader, and the absorbance of the growth bacteria was measured using absorbance reader. Bacterial growth was also visually inspected and agreed well with the OD reading.
# E. coli strain UZ_TEM104 [2] = conditions: in presence of additive at 50 μg/mL
# Wherever Interpretation is given: key: S, susceptible; I, intermediate; R, resistant.
Compound,Interpretation (E. coli TEM-206),MIC (E. coli TEM-206) [µg/mL],Interpretation (E. coli NDM ? a),MIC (E. coli NDM ? a) [µg/mL],Interpretation (E. coli SH ? (APHA)),MIC (E. coli SH ? (APHA)) [µg/mL],Interpretation (E. coli NDM ? b),MIC (E. coli NDM ? b) [µg/mL],Interpretation (E. coli TEM-30),MIC (E. coli TEM-30) [µg/mL],Interpretation (E. coli TEM-1 ?),MIC (E. coli TEM-1 ?) [µg/mL],Interpretation (E. coli TEM-148),MIC (E. coli TEM-148) [µg/mL],Interpretation (E. coli TEM-104),MIC (E. coli TEM-104) [µg/mL],MIC peptide (E. coli strain UZ_TEM104 [1]) [µg/mL],MIC penicillin (E. coli strain UZ_TEM104 [2]) [µg/mL]
C[C@@H](O)[C@H]1C(=O)N2C(C(=O)O)=C(S[C@@H]3CN[C@H](C(=O)N(C)C)C3)[C@H](C)[C@H]12 [Meropen ? m],S,≤ 0.25,R,≥ 16,S,≤ 0.25,I,8,S,≤ 0.25,S,≤ 0.25,S,≤ 0.25,S,,,
CO/N=C(\C(=O)N[C@@H]1C(=O)N2C(C(=O)O)=C(COC(N)=O)CS[C@H]12)c1ccco1 [C ? xime],R,≥ 64,R,≥ 64,R,,R,≥ 64,R,≥ 64,R,≥ 64,R,≥ 64,S,4,,
CO/N=C(\C(=O)N[C@@H]1C(=O)N2C(C(=O)[O-])=C(C[N+]3(C)CCCC3)CS[C@H]12)c1csc(N)n1 [C ? ime],R,≥ 64,R,≥ 64,R,16,R,≥ 64,,≤ 1,R,≥ 64,,2,S,≤ 1,,
Ac-RLLTLASRRPRLLTLASRR-NH2 [TEM4.0],,,,,,,,,,,,,,,,,100,1600
Ac-RIVVIYTTRRPRIVVIYTTRR-NH2 [TEM7.0],,,,,,,,,,,,,,,,,>100,1600
Ac-RGIIAALGRRPRGIIAALGRR-NH2 [TEM6.0],,,,,,,,,,,,,,,,,>100,1600
Colistin,S,≤ 0.5,S,≤ 0.5,S,≤ 0.5,S,≤ 0.5,S,≤ 0.5,S,≤ 0.5,S,≤ 0.5,S,≤ 0.5,,
O=C1CN(/N=C/c2ccc([N+](=O)[O-])o2)C(=O)N1 [Nitrofuran ?],S,,R,64,S,≤ 16,R,64,S,32,S,≤ 16,S,32,S,,,
Ac-RAGWFIARRPRAGWFIARR-NH2 [TEM5.0],,,,,,,,,,,,,,,,,100,1600
CO[C@@]1(NC(=O)Cc2cccs2)C(=O)N2C(C(=O)O)=C(COC(N)=O)CS[C@@H]21 [C ? tin],S,≤ 4,,,,,,,,,S,,,,,,,
NC[C@H]1O[C@H](O[C@H]2[C@H](O)[C@@H](O[C@H]3O[C@H](CO)[C@@H](O)[C@H](N)[C@H]3O)[C@H](N)C[C@@H]2N)[C@H](N)C[C@@H]1O [Tobramycin],S,≤ 1,,,,,S,,,,S,≤ 1,S,≤ 1,S,≤ 1,,
CO/N=C(\C(=O)N[C@@H]1C(=O)N2C(C(=O)O)=C(COC(C)=O)CS[C@H]12)c1csc(N)n1 [Cef ? axime],R,≥ 64,R,≥ 64,R,≥ 64,R,≥ 64,R,4,R,≥ 64,R,16,S,≤ 1,,
NCC[C@H](O)C(=O)N[C@@H]1C[C@H](N)[C@@H](O[C@H]2O[C@H](CN)[C@@H](O)[C@H](O)[C@H]2O)[C@H](O)[C@H]1O[C@H]1O[C@H](CO)[C@@H](O)[C@H](N)[C@H]1O [Amikacin],S,≤ 2,S,,S,,S,,,,S,≤ 2,S,≤ 2,S,≤ 2,,
CN(C)c1cc(NC(=O)CNC(C)(C)C)c(O)c2c1C[C@H]1C[C@H]3[C@H](N(C)C)C(O)=C(C(N)=O)C(=O)[C@@]3(O)C(O)=C1C2=O [Tig ? cycline],,,,,S,,,,,,,,,,,,,
Gentamicin,S,≤ 1,R,≥ 16,R,,S,≤ 1,R,≥ 16,S,≤ 1,S,≤ 1,S,≤ 1,,
CO[C@@]1(NC(=O)C(C(=O)O)c2ccsc2)C(=O)N2[C@@H](C(=O)O)C(C)(C)S[C@@H]21 (some centres unmarked) [T ? cillin],S,,,,,,,,,,,,,,,,,
CC(C)(O/N=C(\C(=O)N[C@@H]1C(=O)N2C(C(=O)[O-])=C(C[n+]3ccccc3)CS[C@H]12)c1csc(N)n1)C(=O)O [C ? dime],R,16,R,≥ 64,R,≥ 64,R,≥ 64,,≤ 1,R,16,,≤ 1,S,≤ 1,,
CO/N=C(\C(=O)N[C@@H]1C(=O)N2C(C(=O)OC(C)OC(C)=O)=C(COC(N)=O)CS[C@H]12)c1ccco1 (some centres unmarked),R,≥ 64,R,≥ 64,R,,R,≥ 64,R,≥ 64,R,≥ 64,R,≥ 64,S,4,,
C[C@H]1COc2c(N3CCN(C)CC3)c(F)cc3c(=O)c(C(=O)O)cn1c23 [Levofloxacin],R,,,,S,,,,,,,,,,,,,
CC(=O)N[C@@H](CCCNC(=N)N)C(=O)N[C@@H](Cc1ccccc1)C(=O)N[C@@H](Cc1ccccc1)C(=O)N[C@@H](C)C(=O)N[C@@H](C)C(=O)N[C@@H](Cc1ccccc1)C(=O)N[C@@H](CS)C(=O)N[C@@H](CC(C)C)C(=O)N[C@@H](CCCNC(=N)N)C(=O)N[C@@H](CCCNC(=N)N)C(=O)N[C@@H](CCCNC(=N)N)C(=O)N1CCC[C@H]1C(=O)N[C@@H](Cc1ccccc1)C(=O)N[C@@H](Cc1ccccc1)C(=O)N[C@@H](C)C(=O)N[C@@H](C)C(=O)N[C@@H](Cc1ccccc1)C(=O)N[C@@H](CS)C(=O)N[C@@H](CC(C)C)C(=O)N[C@@H](CCCNC(=N)N)C(=O)N[C@@H](CCCNC(=N)N)C(N)=O [TEM1.0] (Ac-RFFAAFCLRRRPFFAAFCLRR-NH2),,,,,,,,,,,,,,,,,,1600
